# According to patent US11926826B2, “Twist signaling inhibitor compositions and methods of using the same” (City of Hope, priority 2016, dated 2024):
# Assays:
# [1] = tested on: A2780R cells; assay: Sulphorhodamine B cell survival assay with cisplatin, A2780R; format: cell-based; settings: without YTZ3-15-si494 treatment
# Procedure: Sulphorhodamine B Cell Survival Assays. A2780R or Ovcar8-IP cells were plated in 6 well plates and allowed to adhere overnight. The following day, cells were transfected with siQ, si419, or si494 as described above—A2780R cells using YTZ3-15 and Ovcar8-IP cells using MSNs. After 48-72 hours, cells were transferred to 96 well plates at 5,000 cells per well and allowed to adhere overnight. The following day cells were treated with cisplatin at a series of concentrations (cells not treated with cisplatin served as controls). After 72 hours, cells were fixed in 10% trichloroacetic acid for 1 hour at 4° C., washed with water, and dried. Cells were stained in 0.4% sulphorhodamine B (SRB) in 1% acetic acid for 15 minutes at room temperature and then washed 3-4 times with 1% acetic acid until no further color was present in the wash. Any stray SRB on the walls of the wells was removed, and stained cells were dried for 10 minutes. SRB was solubilized in 10 mM Tris base and color intensity was quantified by absorbance at 570 nm. Each condition was normalized to its own untreated control.
# [2] = tested on: Ovcar8-IP tumors; assay: Ovcar8-IP intraperitoneal tumor model in NSG mice, MSN-siRNA with or without cisplatin; format: in vivo
# Procedure: Animal Studies. The animal studies conducted in these experiments were done in accordance with a protocol approved by the Institutional Animal Care and Use Committee at the City of Hope Beckman Research Institute. A total of 48 female NOD.Cg-Prkdc^scidIl2rg^tm1Wj1/SzJ (NSG) mice (The Jackson Laboratory, Bar Harbor, ME) were used. Ten week old (on average) mice were administered an intraperitoneal injection (IP) of 2.5×10^6 Ovcar8-IP cells in 200 μl of RPMI media. For all studies, mice were placed into four groups: MSN-siQ, MSN-siQ+cisplatin, MSN-si419H, and MSN-si419H+cisplatin (n=4 or n=8). Previous reports show no cellular uptake without MSNs^14, thus a siRNA-only group was not added to this study.
# Bioluminescent imaging of mice (using Xenogen IVIS 100 biophotonic imaging system, STTARR, Toronto, Ontario, Canada) commenced seven days after injection of tumor cells in order to ensure engraftment, and continued once a week for four weeks. Mice were given a 100 μl IP injection of 20 mg/ml D-Luciferin (PerkinElmer, Waltham, MA). Ten minutes after the D-luciferin injection, mice were anesthetized with isoflurane (2%-5%) and placed in the biophotonic imager, and images were taken within two minutes. An alfalfa-free version of the regular rodent diet (alfalfa-free CA-1) was administered to the siQ mice to prevent autofluorescence from the regular diet.
# IP injections of MSN+siRNA (siQ fluorescently labeled with ALEXAFLUOR® 647 or si419H) were conducted one week after the inoculation of Ovcar8-IP cells and done once or twice per week for a total of four weeks. Mice received 105 μl of 500 ng/μl MSN complexed with 15 μl of 10 μM siRNA per week, divided into one full or two half doses (n=4 and n=8, respectively). This is equivalent to […] MSN/week. Weekly 3 mg/kg IP cisplatin injections were given starting two weeks after initial inoculation of cells.
# At completion of the experiment, all animals were euthanized via CO2 asphyxiation. […]
# Statistics. All in vivo data was analyzed using one-way ANOVA with correction for multiple comparisons, comparing all groups to MSN-siQ treatment group. […]
# [3] = tested on: Akt; assay: Western blotting of total Akt during cisplatin exposure; format: cell-based, human
# Procedure: (§1) Western blotting. Cells were pelleted and washed once with phosphate buffered saline (PBS), then lysed in RIPA buffer. Protein concentration was determined using a BCA assay (Thermo Fisher). Equal masses of protein were run on 4% stacking, 10% resolving polyacrylamide gels, and then transferred to PVDF membrane (GE Healthcare Bio-Sciences, Pittsburgh, PA) using the Trans-Blot SD Semi-Dry Transfer Cell (Bio-Rad). Membranes were blocked in dry milk dissolved in PBS with shaking for 1 hr at room temperature or overnight at 4° C. 3% BSA was used for blocking prior to select pAkt blots to reduce background signal. Primary and secondary antibodies were diluted as indicated below in 5% dry milk in PBS with 0.1-0.2% Tween-20. Incubation was performed at room temperature for one hr or overnight at 4° C. for primary, and at room temperature for one hr for secondary. Each antibody incubation was followed by five 5 min washes in PBS with 0.1% Tween-20. FemtoGlow HRP substrate (Michigan Diagnostics, Royal Oak, MI) and the Pxi4 chemiluminescent imager (Syngene, Frederick, MD) were used to acquire digital images. ECL 2 (Thermo Fisher) and Blue Devil Film (Genesee Scientific) were used to acquire film images. […] For select digital and film westerns, bands were quantified using GeneTools software from Syngene or Image Studio Lite from LiCor (Lincoln, NB), respectively, and normalized to β-Actin.
# [4] = tested on: Phospho Akt (Ser473); assay: Western blotting of Akt phosphorylated at Ser 473 during cisplatin exposure; format: cell-based, human; settings: 24 hr
# Procedure: as §1
# [5] = tested on: TWIST1; assay: Western blotting of TWIST1 during cisplatin exposure; format: cell-based, human; settings: Ov8GFP-TWIST1 cells; 5 μM cisplatin over 24 hr
# Procedure: as §1
compound,measurement,setting,value
N.N.[Cl][Pt][Cl] [cisplatin],IC50,[1],~200 µM
same,reduction of metastasis incidence (number of disseminated masses),[2]; FIG. 21B,approximately 50%
same,proportion of mice developing ascites,[2]; n=4 per group,2/4
same,increase in Akt levels,"[3]; Ov8GFP-TWIST1 cells, siQ, 5 μM cisplatin over 24 hr",150%
same,total Akt levels,"[3]; Ov8GFP-sh492 cells, cisplatin over 24 hr",relatively constant
same,increase in proportion of Akt phosphorylated at Ser 473,"[4]; Ov8GFP-TWIST1 cells, siQ, 5 μM cisplatin, normalized to total Akt",128%
same,reduction in phosphorylated Akt,"[4]; Ov8GFP-sh492 cells, cisplatin",63%
same,increase in TWIST1 expression,[5],up to 2.3 fold
